Target: T1, Progesterone receptor (Gallus gallus) (UniProt P07812)
T1 sequence (whole entry): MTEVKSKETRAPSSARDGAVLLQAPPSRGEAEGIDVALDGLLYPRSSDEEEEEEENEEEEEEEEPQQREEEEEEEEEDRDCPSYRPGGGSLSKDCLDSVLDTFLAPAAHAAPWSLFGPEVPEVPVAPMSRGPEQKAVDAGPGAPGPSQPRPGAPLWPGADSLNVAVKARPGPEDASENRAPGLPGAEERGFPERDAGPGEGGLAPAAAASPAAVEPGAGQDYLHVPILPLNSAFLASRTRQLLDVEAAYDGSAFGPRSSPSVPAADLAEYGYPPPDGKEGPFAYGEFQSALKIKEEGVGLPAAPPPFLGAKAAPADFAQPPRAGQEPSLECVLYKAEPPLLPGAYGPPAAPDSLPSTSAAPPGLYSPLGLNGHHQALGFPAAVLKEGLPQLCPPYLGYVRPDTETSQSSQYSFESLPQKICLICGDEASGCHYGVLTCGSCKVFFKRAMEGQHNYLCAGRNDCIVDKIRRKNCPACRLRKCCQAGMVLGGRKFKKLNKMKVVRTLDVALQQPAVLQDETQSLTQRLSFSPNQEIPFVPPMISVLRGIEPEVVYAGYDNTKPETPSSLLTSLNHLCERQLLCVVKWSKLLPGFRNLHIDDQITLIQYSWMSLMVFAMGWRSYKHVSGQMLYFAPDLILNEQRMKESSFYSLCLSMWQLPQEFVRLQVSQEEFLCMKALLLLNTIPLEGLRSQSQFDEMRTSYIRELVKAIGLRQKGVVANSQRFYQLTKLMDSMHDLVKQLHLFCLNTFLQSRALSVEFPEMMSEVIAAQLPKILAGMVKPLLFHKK
Experiment: In vitro displacement of progesterone from oviduct progesterone receptor relative to progesterone

Row | Compound | Relative binding affinity [%]
1 | CC(=O)OC(C(C)=O)[C@@]12CCC[C@H]1[C@@H]1CCC3=CC(=O)CC[C@@H]3[C@H]1CC2 (stereo partly drawn) | 0.1
2 | CC(=O)C[C@@]12CCC[C@H]1[C@@H]1CCC3=CC(=O)CC[C@@H]3[C@H]1CC2 | 2
3 | C#C[C@]1(O)CC[C@H]2[C@@H]3CCC4=CC(=O)CC[C@@H]4[C@H]3CC[C@@]21C [NORETHINDRONE] | 350
4 | C#C[C@@H](O)C12CCCC1C1CCC3=CC(=O)CC[C@@H]3C1CC2 (stereo partly drawn) | 0.6
5 | CC(=O)[C@H]1CC[C@H]2[C@@H]3CCC4=CC(=O)CC[C@]4(C)[C@H]3CC[C@]12C | 100
6 | C#C[C@@H](O)C12CCCC1C1CCC3=CC(=O)CC[C@@H]3C1CC2.C#C[C@H](O)C12CCCC1C1CCC3=CC(=O)CC[C@@H]3C1CC2 (stereo partly drawn) | 3.1

Target: Estrogen receptor (Rattus norvegicus, UniProt P06211+Q62986)
Experiment: Equilibrium dissociation constant for rat uterine estrogen receptor binding [3H]estradiol
Type: protein assay

Row | Compound | Kd [µM]
7 | C#C[C@]1(O)CC[C@H]2[C@@H]3CCC4=CC(=O)CC[C@@H]4[C@H]3CC[C@@]21C [NORETHINDRONE] | 0.00063
8 | OC[C@@]12CCC[C@H]1[C@@H]1CCc3cc(O)ccc3[C@H]1CC2 | 0.31
